By IC50 is commonly meant the point on the concentration scale where inhibition reaches its midpoint.

Each structure is given as a SMILES string. Active and inactive are the calls of the source. The calls are words filed in the database; no cut-off is given here. A value given as a limit tells only on which side of the number the result lay.

In assay [1] the target is L-lactate dehydrogenase A chain (Homo sapiens, UniProt P00338). In words: Inhibition of human LDHA using pyruvate as substrate assessed as disappearance of NADH preincubated for 10 mins followed by substrate addition every 2.5 secs for 10 mins by fluorescence analysis.
The test system of assay [2] is MCF7. In words: Cytotoxicity against human MCF7 cells after 72 hrs by MTT assay. As to conditions: MCF7, 72 h. The class given is functional, cell-based. A general note: Tetrazolium dyes change colour on reduction, which living cells bring about.
The subject of assay [3] is MCF7. Kind of assay: Reduction in lactate production in human MCF7 cells at 10 uM after 12 hrs. It is filed as functional, cell-based.
Assay [4] deals with MCF7. In words: Reduction in lactate production in human MCF7 cells at 5 uM after 12 hrs. The class given is functional, cell-based.
Assay [5] has as its system MCF7. In words: Reduction in lactate production in human MCF7 cells at 5 to 10 uM after 12 hrs. It is filed as functional, cell-based.
For assay [6], the system named is MCF7. In words: Increase in oxygen consumption rate in human MCF7 cells at 2 to 10 uM after 12 hrs by extracellular flux analysis. The class given is functional, cell-based.
Assay [7] relates to MCF7. Kind of assay: Decrease in extracellular acidfication rate in human MCF7 cells at 2 to 10 uM after 12 hrs by extracellular flux analysis. It is filed as functional, cell-based.
Assay [8] relates to MCF7. In words: Decrease in proton production rate in human MCF7 cells at 2 to 10 uM after 12 hrs by extracellular flux analysis. It is filed as functional, cell-based.

`COc1ncc(-c2ccc3c(Nc4cccc(C(=O)O)c4)c(S(N)(=O)=O)cnc3c2)c(OC)n1`: the results for the concentration for half-maximal inhibition (IC50) (in assay [1]; in the assay on MCF7 [2]) were 4.8 µM and > 30 µM, respectively. Also, the result in the assay with MCF7 [3] was Active.

In the case of `Cn1c(=O)c2c(nc(NCc3ccccc3)n2C[C@@H](O)COc2ccc(Cl)cc2)n(C)c1=O`, the IC50 in assay [1] is 2.3 µM; in the assay with MCF7 [2] it was 3.5 µM.

On to `Cc1ccccc1OC[C@H](O)Cn1c(NCc2ccccc2)nc2c1c(=O)n(C)c(=O)n2C`, for which the IC50 in assay [1] came to 0.25 µM; in the assay on MCF7 [2] it was 1.54 µM. Also, the result in the assay with MCF7 [4], in the assay on MCF7 [5] and in the assay with MCF7 [6] was Active. The inhibition entry in the assay on MCF7 [7] and in the assay on MCF7 [8] was “Active” throughout.

`CCCC(=O)N(c1ccc2oc(C)c(C(=O)OCC)c2c1)S(=O)(=O)c1ccc(OC)cc1`: the IC50 in assay [1] was 3.5 µM; in the assay with MCF7 [2], > 30 µM.

As for `Cc1nc(C)c(C(=O)OC[C@H]2CCCO2)c(-c2ccccc2C(F)(F)F)c1C(=O)O`, the IC50 came to 7.8 µM in assay [1] and 10.8 µM in the assay with MCF7 [2].

These data come from ChEMBL document CHEMBL3745616, “Identification of a potent inhibitor targeting human lactate dehydrogenase A and its metabolic modulation for cancer cell line” (Bioorg Med Chem Lett, 2016).
